Laboratory results as given in US9714244B2, “Substituted pyrido[4,3-d]pyrimidines as Wee-1 inhibitors” (ALMAC DISCOVERY LIMITED, priority 2013, dated 2017).

Legend:
CHEK1 (CHK1) = CHEK1 (CHK1) (Homo sapiens (Human), UniProt O14757); assay: SelectScreen Kinase Profiling: CHEK1; type: biochemical; conditions: 300-350 nM
From the text: (§1) Table 2 below highlights the selectivity of a representative compound of the invention against a panel of 50 kinases (assessed using the Invitrogen SelectScreen® Kinase Profiling Service).

AMPK A1/B1/G1 = AMPK A1/B1/G1 (Homo sapiens (Human), UniProt Q13131); assay: SelectScreen Kinase Profiling: AMPK; type: biochemical; conditions: 300-350 nM
AMPK A1/B1/G1, sequence (Q13131 whole entry): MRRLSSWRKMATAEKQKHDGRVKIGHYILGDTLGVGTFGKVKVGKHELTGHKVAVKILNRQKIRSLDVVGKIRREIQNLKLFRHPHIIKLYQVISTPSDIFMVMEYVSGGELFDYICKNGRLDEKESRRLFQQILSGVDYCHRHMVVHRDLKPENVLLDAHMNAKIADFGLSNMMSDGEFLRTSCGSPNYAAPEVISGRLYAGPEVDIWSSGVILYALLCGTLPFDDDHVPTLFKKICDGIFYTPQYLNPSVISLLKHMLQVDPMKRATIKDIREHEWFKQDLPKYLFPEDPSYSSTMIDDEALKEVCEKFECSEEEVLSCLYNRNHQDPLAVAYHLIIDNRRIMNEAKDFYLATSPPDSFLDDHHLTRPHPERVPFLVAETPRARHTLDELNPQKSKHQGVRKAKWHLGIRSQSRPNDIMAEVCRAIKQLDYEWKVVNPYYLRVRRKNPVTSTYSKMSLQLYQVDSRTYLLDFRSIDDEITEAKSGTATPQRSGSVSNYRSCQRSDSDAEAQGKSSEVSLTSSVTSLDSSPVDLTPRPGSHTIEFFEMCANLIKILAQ
AMPK A1/B1/G1, sequence (Q9Y478 whole entry partner): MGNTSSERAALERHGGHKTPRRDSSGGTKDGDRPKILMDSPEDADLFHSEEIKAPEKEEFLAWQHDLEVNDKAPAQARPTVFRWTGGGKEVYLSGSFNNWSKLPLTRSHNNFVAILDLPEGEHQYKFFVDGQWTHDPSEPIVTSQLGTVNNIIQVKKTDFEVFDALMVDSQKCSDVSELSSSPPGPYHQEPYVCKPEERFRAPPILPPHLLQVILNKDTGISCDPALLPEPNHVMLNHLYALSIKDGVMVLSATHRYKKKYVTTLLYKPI
AMPK A1/B1/G1, sequence (P54619 whole entry partner): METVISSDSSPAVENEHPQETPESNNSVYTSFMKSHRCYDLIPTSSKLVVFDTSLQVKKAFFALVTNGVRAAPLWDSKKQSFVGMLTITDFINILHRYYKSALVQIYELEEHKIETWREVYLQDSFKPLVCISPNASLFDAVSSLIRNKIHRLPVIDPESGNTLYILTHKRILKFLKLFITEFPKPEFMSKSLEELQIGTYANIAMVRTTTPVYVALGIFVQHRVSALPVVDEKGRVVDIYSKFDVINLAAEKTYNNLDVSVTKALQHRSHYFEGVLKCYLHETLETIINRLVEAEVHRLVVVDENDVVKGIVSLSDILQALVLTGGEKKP
From the text: as §1

BTK = BTK (Homo sapiens (Human), UniProt Q06187); assay: SelectScreen Kinase Profiling: BTK; type: biochemical; conditions: 300-350 nM
From the text: as §1

NTRK1 (TRKA) = NTRK1 (TRKA) (Homo sapiens (Human), UniProt P04629); assay: SelectScreen Kinase Profiling: NTRK1; type: biochemical; conditions: 300-350 nM
NTRK1 (TRKA), sequence (P04629 33-796): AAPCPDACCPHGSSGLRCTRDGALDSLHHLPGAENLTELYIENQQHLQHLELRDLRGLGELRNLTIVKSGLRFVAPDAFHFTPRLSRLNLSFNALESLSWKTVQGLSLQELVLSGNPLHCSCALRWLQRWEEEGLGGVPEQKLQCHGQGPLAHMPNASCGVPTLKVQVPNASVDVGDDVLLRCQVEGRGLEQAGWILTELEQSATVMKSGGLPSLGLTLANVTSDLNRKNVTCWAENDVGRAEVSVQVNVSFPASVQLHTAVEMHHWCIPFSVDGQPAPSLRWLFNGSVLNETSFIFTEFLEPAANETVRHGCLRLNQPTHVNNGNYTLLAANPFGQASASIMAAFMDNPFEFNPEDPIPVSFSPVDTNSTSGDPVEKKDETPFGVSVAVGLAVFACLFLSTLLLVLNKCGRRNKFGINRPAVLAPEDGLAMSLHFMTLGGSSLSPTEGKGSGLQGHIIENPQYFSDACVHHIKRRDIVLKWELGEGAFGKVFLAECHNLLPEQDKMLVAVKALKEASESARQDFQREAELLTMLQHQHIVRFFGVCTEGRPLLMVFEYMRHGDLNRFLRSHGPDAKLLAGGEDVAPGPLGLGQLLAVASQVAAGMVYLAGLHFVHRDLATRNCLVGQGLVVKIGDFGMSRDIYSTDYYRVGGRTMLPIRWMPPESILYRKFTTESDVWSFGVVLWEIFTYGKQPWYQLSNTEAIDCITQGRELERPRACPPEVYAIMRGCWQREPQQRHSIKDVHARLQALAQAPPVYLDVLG
From the text: as §1

KIT = KIT (Homo sapiens (Human), UniProt P10721); assay: SelectScreen Kinase Profiling: KIT; type: biochemical; conditions: 300-350 nM
From the text: as §1

AURKA (Aurora A) = AURKA (Aurora A) (Homo sapiens (Human), UniProt O14965); assay: SelectScreen Kinase Profiling: AURKA; type: biochemical; conditions: 300-350 nM
AURKA (Aurora A), sequence (O14965 whole entry): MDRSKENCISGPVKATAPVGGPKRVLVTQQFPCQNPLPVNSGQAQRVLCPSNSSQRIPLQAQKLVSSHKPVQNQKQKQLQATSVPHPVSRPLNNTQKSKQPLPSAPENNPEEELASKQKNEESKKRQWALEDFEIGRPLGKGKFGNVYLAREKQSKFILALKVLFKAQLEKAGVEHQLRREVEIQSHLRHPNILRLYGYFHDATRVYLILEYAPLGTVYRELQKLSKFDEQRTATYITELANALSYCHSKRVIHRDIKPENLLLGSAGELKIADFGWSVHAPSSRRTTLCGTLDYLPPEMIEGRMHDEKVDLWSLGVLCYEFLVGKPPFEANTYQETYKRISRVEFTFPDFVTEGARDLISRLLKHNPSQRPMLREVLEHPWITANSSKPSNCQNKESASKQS
From the text: as §1

CSNK1G2 (CK1 gamma 2) = CSNK1G2 (CK1 gamma 2) (Homo sapiens (Human), UniProt P78368); assay: SelectScreen Kinase Profiling: CSNK1G2; type: biochemical; conditions: 300-350 nM
From the text: as §1

NEK1 = NEK1 (Homo sapiens (Human), UniProt Q96PY6); assay: SelectScreen Kinase Profiling: NEK1; type: biochemical; conditions: 300-350 nM
From the text: as §1

[1] = tested on: phospho-cdc2 (Tyr15) in HT-29 cells; assay: Effect on phosphorylation of cdc2 at Tyr15 in HT-29 cells (PathScan ELISA); type: cell-based; conditions: Homo sapiens, HT-29, 8 h; HT29 cells, eight hours incubation; read-out: HT29 pCDC2 activity
CDK1/cyclin B = CDK1/cyclin B (Homo sapiens (Human), UniProt P06493); assay: SelectScreen Kinase Profiling: CDK1/cyclin B; type: biochemical; conditions: 300-350 nM
From the text: as §1

EPHA2 = EPHA2 (Homo sapiens (Human), UniProt P29317); assay: SelectScreen Kinase Profiling: EPHA2; type: biochemical; conditions: 300-350 nM
EPHA2, sequence (P29317 24-976): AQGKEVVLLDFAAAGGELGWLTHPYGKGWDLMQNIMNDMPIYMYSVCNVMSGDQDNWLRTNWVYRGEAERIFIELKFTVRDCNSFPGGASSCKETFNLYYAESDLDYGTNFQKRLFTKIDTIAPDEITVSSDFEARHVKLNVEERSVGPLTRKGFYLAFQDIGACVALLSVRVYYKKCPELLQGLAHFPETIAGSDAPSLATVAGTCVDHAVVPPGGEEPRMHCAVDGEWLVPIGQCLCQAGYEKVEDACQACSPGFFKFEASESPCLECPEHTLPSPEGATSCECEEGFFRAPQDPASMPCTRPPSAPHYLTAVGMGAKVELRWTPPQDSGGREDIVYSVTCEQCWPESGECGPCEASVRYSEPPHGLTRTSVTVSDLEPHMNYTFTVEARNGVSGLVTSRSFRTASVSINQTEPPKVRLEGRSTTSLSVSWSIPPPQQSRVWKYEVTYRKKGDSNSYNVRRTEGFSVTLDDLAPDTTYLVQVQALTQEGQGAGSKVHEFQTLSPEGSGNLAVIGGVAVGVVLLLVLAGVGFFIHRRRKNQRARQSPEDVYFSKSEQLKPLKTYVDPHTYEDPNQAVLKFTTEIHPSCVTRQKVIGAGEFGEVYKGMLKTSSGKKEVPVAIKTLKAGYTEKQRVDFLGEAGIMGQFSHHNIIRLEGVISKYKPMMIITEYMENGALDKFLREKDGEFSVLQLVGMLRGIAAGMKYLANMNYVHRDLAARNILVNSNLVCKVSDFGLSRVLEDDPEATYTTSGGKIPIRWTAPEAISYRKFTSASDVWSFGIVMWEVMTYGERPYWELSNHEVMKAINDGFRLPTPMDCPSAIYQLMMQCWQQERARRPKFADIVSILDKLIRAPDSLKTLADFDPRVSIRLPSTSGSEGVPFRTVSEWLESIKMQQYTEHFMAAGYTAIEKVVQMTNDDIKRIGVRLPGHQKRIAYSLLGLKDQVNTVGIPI
From the text: as §1

MAPK1 (ERK2) = MAPK1 (ERK2) (Homo sapiens (Human), UniProt P28482); assay: SelectScreen Kinase Profiling: MAPK1; type: biochemical; conditions: 300-350 nM
From the text: as §1

RET = RET (Homo sapiens (Human), UniProt P07949); assay: SelectScreen Kinase Profiling: RET; type: biochemical; conditions: 300-350 nM
From the text: as §1

MAP2K1 (MEK1) = MAP2K1 (MEK1) (Homo sapiens (Human), UniProt Q02750); assay: SelectScreen Kinase Profiling: MAP2K1; type: biochemical; conditions: 300-350 nM
MAP2K1 (MEK1), sequence (Q02750 whole entry): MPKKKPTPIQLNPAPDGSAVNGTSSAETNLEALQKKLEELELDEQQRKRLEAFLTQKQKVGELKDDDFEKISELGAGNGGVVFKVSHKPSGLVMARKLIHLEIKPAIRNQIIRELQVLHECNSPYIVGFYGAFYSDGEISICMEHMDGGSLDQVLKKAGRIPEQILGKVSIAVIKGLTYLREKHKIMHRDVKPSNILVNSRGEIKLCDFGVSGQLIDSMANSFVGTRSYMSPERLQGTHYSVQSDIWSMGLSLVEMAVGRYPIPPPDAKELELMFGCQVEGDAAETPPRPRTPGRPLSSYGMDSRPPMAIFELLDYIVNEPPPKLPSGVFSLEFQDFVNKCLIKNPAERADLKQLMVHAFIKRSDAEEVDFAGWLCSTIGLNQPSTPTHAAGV
From the text: as §1

PIM1 = PIM1 (Homo sapiens (Human), UniProt P11309); assay: SelectScreen Kinase Profiling: PIM1; type: biochemical; conditions: 300-350 nM
From the text: as §1

ABL1 = ABL1 (Homo sapiens (Human), UniProt P00519); assay: SelectScreen Kinase Profiling: ABL1; type: biochemical; conditions: 300-350 nM
ABL1, sequence (P00519 whole entry): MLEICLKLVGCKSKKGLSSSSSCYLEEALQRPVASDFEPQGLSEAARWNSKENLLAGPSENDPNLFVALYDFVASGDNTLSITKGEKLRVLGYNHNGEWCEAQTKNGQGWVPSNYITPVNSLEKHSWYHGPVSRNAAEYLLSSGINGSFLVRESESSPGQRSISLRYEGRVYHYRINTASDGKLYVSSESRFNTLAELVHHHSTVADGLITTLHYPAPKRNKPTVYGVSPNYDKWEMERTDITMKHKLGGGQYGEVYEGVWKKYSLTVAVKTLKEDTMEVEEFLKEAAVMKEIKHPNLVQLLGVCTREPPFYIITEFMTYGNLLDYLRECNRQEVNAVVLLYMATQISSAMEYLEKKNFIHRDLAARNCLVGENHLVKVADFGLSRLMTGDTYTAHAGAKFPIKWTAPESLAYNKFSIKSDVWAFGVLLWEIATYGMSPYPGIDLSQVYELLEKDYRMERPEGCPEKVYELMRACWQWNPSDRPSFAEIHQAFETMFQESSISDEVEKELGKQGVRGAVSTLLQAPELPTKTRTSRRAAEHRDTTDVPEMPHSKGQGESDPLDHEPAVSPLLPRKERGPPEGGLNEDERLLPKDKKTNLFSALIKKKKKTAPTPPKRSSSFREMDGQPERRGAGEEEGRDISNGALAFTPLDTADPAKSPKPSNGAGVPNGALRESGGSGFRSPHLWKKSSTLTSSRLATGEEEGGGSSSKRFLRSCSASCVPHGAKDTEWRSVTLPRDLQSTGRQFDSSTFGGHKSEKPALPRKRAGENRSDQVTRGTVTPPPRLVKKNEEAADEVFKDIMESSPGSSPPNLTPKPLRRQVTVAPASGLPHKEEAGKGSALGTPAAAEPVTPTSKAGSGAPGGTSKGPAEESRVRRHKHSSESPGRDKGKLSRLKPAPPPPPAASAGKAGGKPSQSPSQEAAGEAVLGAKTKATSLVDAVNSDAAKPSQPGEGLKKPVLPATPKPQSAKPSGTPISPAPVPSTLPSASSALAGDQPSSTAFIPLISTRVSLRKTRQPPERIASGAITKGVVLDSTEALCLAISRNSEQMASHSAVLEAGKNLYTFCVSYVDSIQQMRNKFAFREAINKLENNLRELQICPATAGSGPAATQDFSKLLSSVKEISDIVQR
From the text: as §1

[2] = CLint estimates using human liver microsomes; type: in vitro ADME; conditions: pH 7.4, read-out: HLM activity (HLM CLint)

## O=c1c2cnc(Nc3ccc(N4CCNCC4)cc3)nc2ccn1-c1c(Cl)cccc1Cl [Example 1, 6-(2,6-Dichlorophenyl)-2-((4-(piperazin-1-yl)phenyl)amino)pyrido[4,3-d]pyrimidin-5(6H)-one]
CHEK1 (CHK1)
  Inhibition CHEK1 (CHK1): − (Inhibition <75% @ 300-350 nM)
AMPK A1/B1/G1
  Inhibition AMPK A1/B1/G1: − (Inhibition <75% @ 300-350 nM)
BTK
  Inhibition BTK: − (Inhibition <75% @ 300-350 nM)
NTRK1 (TRKA)
  Inhibition NTRK1 (TRKA): − (Inhibition <75% @ 300-350 nM)
KIT
  Inhibition KIT: − (Inhibition <75% @ 300-350 nM)
AURKA (Aurora A)
  Inhibition AURKA (Aurora A): − (Inhibition <75% @ 300-350 nM)
CSNK1G2 (CK1 gamma 2)
  Inhibition CSNK1G2 (CK1 gamma 2): − (Inhibition <75% @ 300-350 nM)
NEK1
  Inhibition NEK1: − (Inhibition <75% @ 300-350 nM)
[1]
  IC50: ≥ 1000 nM
CDK1/cyclin B
  Inhibition CDK1/cyclin B: − (Inhibition <75% @ 300-350 nM)
EPHA2
  Inhibition EPHA2: − (Inhibition <75% @ 300-350 nM)
MAPK1 (ERK2)
  Inhibition MAPK1 (ERK2): − (Inhibition <75% @ 300-350 nM)
RET
  Inhibition RET: − (Inhibition <75% @ 300-350 nM)
MAP2K1 (MEK1)
  Inhibition MAP2K1 (MEK1): − (Inhibition <75% @ 300-350 nM)
PIM1
  Inhibition PIM1: − (Inhibition <75% @ 300-350 nM)
ABL1
  Inhibition ABL1: + (Inhibition >75% at 300-350 nM)
[2]
  microsomal CLint at 1 μM: ≤ 20 µL/min/mg
